According to paper PMC6749364, “Pharmacokinetics and Tissue Distribution of Alnustone in Rats after Intravenous Administration by Liquid Chromatography-Mass Spectrometry” (Molecules, 2019):

Assay: Tissue distribution study after intravenous administration
Format: in vivo, Sprague-Dawley rats
Settings: rats, i.v. 5 mg/kg; for Kp at 0.5 h / Kp at 1 h / Kp at 4 h / Kp at 2 h: n = 5
Experimental: The rat was sacrificed quickly by decapitation on the ice. The various tissues (heart, liver, spleen, lung, kidney, brain, stomach, intestine) were harvested and rinsed with ice-cold 0.9% NaCl to remove the superficial blood. After being blotted dry with filter paper, each tissue sample was weighed on ice and physiological saline added ([…]) to homogenize. Then, a 100 μL (equivalent to 50 mg) of tissue homogenate was taken and processed using the same method as the plasma samples processing method as shown in the above steps.
The mobile phase consisted of methanol and 0.1% formic acid water using a gradient dilution at a flow rate of 0.3 mL/min. The column temperature was maintained at 30 °C. Alnustone was quantitatively determined with MRM in the positive ion mode, and nitrogen was used to assist nebulization in the ESI source. The MS parameters were set as follows: The ionspray voltage (IS) 5500 V; nebulizer gas (gas 1) 19 arbitrary units; curtain gas (CUR) 10 arbitrary units; collision cell exit potential (CXP) 7.0 V; entrance potential (EP) 10.0 V. The optimization of the MS transitions using the multiple-reaction monitoring (MRM) mode were accomplished as alnustone m/z 262.9→105.2 and IS (caffeine) m/z 195.2→138.0, respectively.
For the tissue distribution study, 20 SD rats were randomly divided into four groups (5 rats for each time point) and fasted for 12 h with free access to water prior to administration. After the rats were tail intravenously administrated of alnustone (5 mg/kg), the tissue specimens (heart, liver, spleen, lung, kidney, brain, stomach and intestine) were collected at 0.5, 1, 2, and 4 h post-dosing, respectively. The blank tissues were prepared separately using drug-free SD rats. The tissue harvesting and homogenizing method were given in Section 3.5. For the plasma and tissue homogenate sample preparation method, also see Section 3.5.

[1] = Sprague-Dawley, rat, iv, Intestine
[2] = Sprague-Dawley, rat, iv, Kidney
[3] = Sprague-Dawley, rat, iv, Spleen
[4] = Sprague-Dawley, rat, iv, Stomach

Q: For `O=C(/C=C/C=C/c1ccccc1)CCc1ccccc1` [alnustone, Alnustone], which Kp at 0.5 h (Sprague-Dawley, rat, iv, Brain) is on record?
A: The Kp at 0.5 h was 0.11 ± 0.4.

Q: And the Kp at 1 h (Sprague-Dawley, rat, iv, Brain)?
A: The Kp at 1 h was 0.21 ± 0.56.

Q: What about the Kp at 4 h (Sprague-Dawley, rat, iv, Brain, 4 h) of the same compound?
A: Its Kp at 4 h is 1.03 ± 0.08.

Q: And the Kp at 0.5 h (Sprague-Dawley, rat, iv, Heart)?
A: The Kp at 0.5 h was 0.36 ± 0.06.

Q: And the Kp at 1 h (Sprague-Dawley, rat, iv, Heart)?
A: The Kp at 1 h was 0.42 ± 0.1.

Q: What about the Kp at 2 h (Sprague-Dawley, rat, iv, Heart) of the same compound?
A: The Kp at 2 h was 0.59 ± 0.17.

Q: What about the Kp at 4 h (Sprague-Dawley, rat, iv, Heart, 4 h) of the same compound?
A: Its Kp at 4 h is 1.78 ± 0.24.

Q: And the Kp at 0.5 h [1]?
A: Its Kp at 0.5 h is 0.39 ± 0.07.

Q: What about the Kp at 1 h [1] of the same compound?
A: Its Kp at 1 h is 0.66 ± 0.12.

Q: And the Kp at 2 h [1]?
A: The Kp at 2 h was 0.88 ± 0.19.

Q: What about the Kp at 4 h (Sprague-Dawley, rat, iv, Intestine, 4 h) of the same compound?
A: Its Kp at 4 h is 1.18 ± 0.2.

Q: What about the Kp at 0.5 h [2] of the same compound?
A: Its Kp at 0.5 h is 0.58 ± 0.07.

Q: What about the Kp at 1 h [2] of the same compound?
A: The Kp at 1 h was 0.74 ± 0.11.

Q: What about the Kp at 2 h [2] of the same compound?
A: Its Kp at 2 h is 1.49 ± 0.27.

Q: What about the Kp at 4 h (Sprague-Dawley, rat, iv, Kidney, 4 h) of the same compound?
A: The Kp at 4 h was 1.86 ± 0.18.

Q: And the Kp at 0.5 h (Sprague-Dawley, rat, iv, Liver)?
A: The Kp at 0.5 h was 1.28 ± 0.34.

Q: What about the Kp at 1 h (Sprague-Dawley, rat, iv, Liver) of the same compound?
A: The Kp at 1 h was 1.31 ± 0.18.

Q: What about the Kp at 2 h (Sprague-Dawley, rat, iv, Liver) of the same compound?
A: Its Kp at 2 h is 1.28 ± 0.29.

Q: What about the Kp at 4 h (Sprague-Dawley, rat, iv, Liver, 4 h) of the same compound?
A: The Kp at 4 h was 5.48 ± 0.66.

Q: What about the Kp at 0.5 h (Sprague-Dawley, rat, iv, Lung) of the same compound?
A: Its Kp at 0.5 h is 1.3 ± 0.09.

Q: What about the Kp at 1 h (Sprague-Dawley, rat, iv, Lung) of the same compound?
A: The Kp at 1 h was 3.39 ± 0.39.

Q: And the Kp at 2 h (Sprague-Dawley, rat, iv, Lung)?
A: Its Kp at 2 h is 4.55 ± 0.61.

Q: And the Kp at 4 h (Sprague-Dawley, rat, iv, Lung, 4 h)?
A: Its Kp at 4 h is 15.8 ± 1.33.

Q: And the Kp at 0.5 h [3]?
A: The Kp at 0.5 h was 0.46 ± 0.06.

Q: What about the Kp at 1 h [3] of the same compound?
A: Its Kp at 1 h is 1.24 ± 0.13.

Q: And the Kp at 2 h [3]?
A: Its Kp at 2 h is 0.7 ± 0.06.

Q: What about the Kp at 4 h (Sprague-Dawley, rat, iv, Spleen, 4 h) of the same compound?
A: The Kp at 4 h was 1.54 ± 0.32.

Q: What about the Kp at 0.5 h [4] of the same compound?
A: The Kp at 0.5 h was 0.64 ± 0.14.

Q: What about the Kp at 1 h [4] of the same compound?
A: The Kp at 1 h was 0.52 ± 0.11.

Q: What about the Kp at 2 h [4] of the same compound?
A: The Kp at 2 h was 0.7 ± 0.03.

Q: And the Kp at 4 h (Sprague-Dawley, rat, iv, Stomach, 4 h)?
A: The Kp at 4 h was 3.66 ± 0.27.

Q: What about the concentration at 4 h (Sprague-Dawley, rat, iv, brain, 4 h) of the same compound?
A: Its concentration at 4 h is 567 ng/mL.

Q: What about the “highest mean concentration in tissue” value (brain) of the same compound?
A: The value was 344.27 ng/g.

Q: And the “time of maximum tissue concentration” value (brain)?
A: The value was 1 h.

Q: What about the “highest mean concentration in tissue” value (heart) of the same compound?
A: The value was 900.97 ng/g.

Q: And the “highest mean concentration in tissue” value (intestine)?
A: The value was 1099.14 ng/g.

Q: And the “time of maximum tissue concentration” value (intestine)?
A: Its value is 1 h.

Q: And the “highest mean concentration in tissue” value (kidney)?
A: Its value is 1450.43 ng/g.

Q: And the “highest mean concentration in tissue” value (liver)?
A: The value was 3199.49 ng/g.

Q: What about the “highest mean concentration in tissue” value (lung) of the same compound?
A: The value was 5685.40 ng/g.

Q: What about the “time of maximum tissue concentration” value (lung) of the same compound?
A: The value was 1 h.

Q: What about the blood-brain barrier penetration of the same compound?
A: Its blood-brain barrier penetration is “could enter the brain through the blood-brain barrier”.

Q: What about the “highest mean concentration in tissue” value (spleen) of the same compound?
A: Its value is 2077.14 ng/g.

Q: And the “time of maximum tissue concentration” value (spleen)?
A: The value was 1 h.

Q: And the “highest mean concentration in tissue” value (stomach)?
A: Its value is 1588.90 ng/g.
